The results in this text go back to ChEMBL document CHEMBL1201862, “PubChem BioAssay data set” (2004).

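Test compounds were applied to cells in 96-well plates for 48 hours at 5 doses. GI50 marks 50% less growth.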 The source made the active and inactive calls. No stated cut-off is given here; in the data, active = GI50 up to about 1.1 µM and inactive = higher.

Assay in all cases: DTP human tumour cell line panel, 48 h
The test system of assay [1] is SK-MEL-28.
The test system of assay [2] is SR.
For assay [3], the system named is SNB-19.
The subject of assay [4] is HT-29.
Assay [5] deals with SK-MEL-5.
Assay [6] has as its system CCRF-CEM.
Assay [7] deals with U-251.
Assay [8] relates to RXF 393.
Assay [9] concerns 786-0.
Assay [10] concerns HOP-92.
Assay [11] deals with NCI-H522.
Assay [12] deals with M14.
Assay [13] concerns NCI/ADR-RES.
Assay [14] relates to HCT-116.
In assay [15] the test system is UACC-257.
The test system of assay [16] is T47D.
The test system of assay [17] is PC-3.
Assay [18] deals with CAKI-1.
For assay [19], the system named is OVCAR-5.
Assay [20] relates to NCI-H226.

As to `CCSc1nc(C)nc2c1sc1nc3ccccc3n12`, the GI50 in assay [1], in assay [2], in [3], in assay [4], in assay [5] and in assay [6] was > 100 µM (inactive) each time. The GI50 in assay [7], in assay [8], in assay [9], in assay [10], in [11] and in assay [12] was > 100 µM (inactive) throughout. The GI50 in assay [13], in [14], in assay [15], in assay [16], in assay [17] and in assay [18] was > 100 µM (inactive) throughout. Moreover, the GI50 in assay [19] and in assay [20] was > 100 µM (inactive) in each case.
For the molecule `CCC1CC(=O)N(SCC(N)C(=O)O)C1=O` (stereo not given), the GI50 in assay [1], in assay [2], in assay [3], in assay [4], in assay [5] and in [6] was > 100 µM (inactive) each time. Further, the GI50 in assay [7], in assay [8], in assay [9], in assay [10], in assay [11] and in assay [12] was > 100 µM (inactive) each time. In addition, the GI50 in assay [13], in [14], in [15], in [16], in assay [17] and in [18] was > 100 µM (inactive) in each case. The GI50 in [19] and in assay [20] was > 100 µM (inactive) in each case.
For `COC(=O)[C@H](C)NC(=O)C1(CNC(=O)[C@H](C)NC(=O)OC(C)(C)C)Cc2ccccc2-c2ccccc2C1`, the GI50 in [1] is > 47.3 µM (inactive); in [2], 20 µM (inactive); in assay [3] it was > 56.9 µM (inactive); in assay [4], 17.4 µM (inactive); in assay [5], 23.3 µM (inactive); in assay [6], 18.7 µM (inactive). Further, the GI50 in assay [7] is 17.9 µM (inactive); in assay [8] it was 25.5 µM (inactive); in assay [9], 19.6 µM (inactive); in assay [10] it was 5.51 µM (inactive); in assay [11] it was 7.52 µM (inactive); in assay [12], > 45.9 µM (inactive). Further, the GI50 is 17.5 µM (inactive) in assay [13]; 33.8 µM (inactive) in [14]; > 48.2 µM (inactive) in [15]; 21.8 µM (inactive) in assay [16]; 23.8 µM (inactive) in assay [17]; 12.2 µM (inactive) in [18]. Also, the GI50 in assay [19] is 19.9 µM (inactive); in assay [20], 24.5 µM (inactive).
For `Nn1c(Sc2nc3ccccc3c(=O)n2N)nc2ccccc2c1=O`, the GI50 in assay [1] was 4.84 µM (inactive); in [2], 2.02 µM (inactive); in [3] it was 6.92 µM (inactive); in assay [4], 3.4 µM (inactive); in [5], 3.96 µM (inactive); in [6], 0.94 µM (active). Moreover, the GI50 in [7] is 7.03 µM (inactive); in [8], 7.85 µM (inactive); in [9], 4.72 µM (inactive); in assay [10], 6.92 µM (inactive); in [11], 1.69 µM (inactive); in assay [12] it was 1.8 µM (inactive). Further, the GI50 is 7.76 µM (inactive) in assay [13]; 2.99 µM (inactive) in assay [14]; 16.5 µM (inactive) in [15]; 5.09 µM (inactive) in assay [16]; 11.7 µM (inactive) in [17]; 6.37 µM (inactive) in assay [18]. Moreover, the GI50 in [19] was 16.5 µM (inactive); in assay [20] it was 1.71 µM (inactive).
On to `O=C1CCCCC(=O)Nc2ccccc2N1`, for which the GI50 in assay [1] is > 100 µM (inactive); in [2], 39.4 µM (inactive); in assay [3], > 100 µM (inactive); in assay [4], > 100 µM (inactive); in assay [5], > 100 µM (inactive); in assay [6], > 100 µM (inactive). Moreover, the GI50 in assay [7], in assay [8], in assay [9], in [10], in [11] and in assay [12] was > 100 µM (inactive) each time. The GI50 in assay [13], in assay [14], in [15], in assay [16], in assay [17] and in assay [18] was > 100 µM (inactive) in each case. For the same molecule, the GI50 in assay [19] and in assay [20] was > 100 µM (inactive) each time.
For `CCOC(=O)c1nc2cc(N3CCOCC3)c(F)cc2[nH]c1=O`, the GI50 in assay [1] is > 100 µM (inactive); in assay [2], 54.2 µM (inactive); in assay [3] it was > 100 µM (inactive); in assay [4], 69.8 µM (inactive); in [5], > 100 µM (inactive); in assay [6], 91.8 µM (inactive). Besides, the GI50 in assay [7] was > 100 µM (inactive); in assay [8], > 100 µM (inactive); in assay [9], > 100 µM (inactive); in assay [10], 37.9 µM (inactive); in assay [11], 67.9 µM (inactive); in assay [12], > 100 µM (inactive). Moreover, the GI50 in assay [13], in assay [14], in assay [15], in [16], in [17] and in assay [18] was > 100 µM (inactive) in each case. Moreover, the GI50 is 64.3 µM (inactive) in [19] and 20.3 µM (inactive) in [20].
`C[C@@H]1[C@@H](C)C(c2ccccc2)O[Si]1(C(C)(C)C)C(C)(C)C` (stereo not given in full): the GI50 in [1] was 24.9 µM (inactive); in assay [2] it was 11.8 µM (inactive); in assay [3] it was 13.8 µM (inactive); in assay [4], 15.2 µM (inactive); in assay [5], 17.4 µM (inactive); in assay [6], 18.9 µM (inactive). In addition, the GI50 in assay [7] is 17 µM (inactive); in assay [8], 17.1 µM (inactive); in assay [9] it was 16 µM (inactive); in assay [10] it was 21.5 µM (inactive); in [11], 15.1 µM (inactive); in [12], 18.2 µM (inactive). The GI50 in assay [13] was 18.1 µM (inactive); in [14] it was 15.5 µM (inactive); in assay [15], 17.1 µM (inactive); in assay [16] it was 19.1 µM (inactive); in assay [17] it was 17.1 µM (inactive); in assay [18] it was 17.1 µM (inactive). Also, the GI50 is 17.6 µM (inactive) in assay [19] and 18.1 µM (inactive) in [20].
Take `CC(=O)NC1=CC(=O)C=C(Cl)C1=O`: the GI50 in assay [1] was > 100 µM (inactive); in assay [2] it was 22.4 µM (inactive); in [3], > 100 µM (inactive); in assay [4], > 100 µM (inactive); in assay [5], > 100 µM (inactive); in assay [6], 22.9 µM (inactive). Also, the GI50 is > 100 µM (inactive) in assay [7]; 92.5 µM (inactive) in [8]; > 100 µM (inactive) in assay [9]; > 100 µM (inactive) in assay [10]; 28.9 µM (inactive) in assay [11]; 42.3 µM (inactive) in assay [12]. Besides, the GI50 in [13] is > 100 µM (inactive); in assay [14], > 100 µM (inactive); in [15] it was 54.1 µM (inactive); in [16] it was > 100 µM (inactive); in assay [17], > 100 µM (inactive); in [18], > 100 µM (inactive). Also, the GI50 in assay [19] and in assay [20] was > 100 µM (inactive) in each case.
On to `c1ccc2c(c1)-c1ccccc1C2N1CC2CCC(CC2)C1`, for which the GI50 was 33.3 µM (inactive) in assay [1]; 20.6 µM (inactive) in [2]; 29.4 µM (inactive) in assay [3]; 16.8 µM (inactive) in [4]; 17.1 µM (inactive) in [5]; 19.5 µM (inactive) in assay [6]. For the same molecule, the GI50 is 17.1 µM (inactive) in [7]; 17.8 µM (inactive) in assay [8]; 35.1 µM (inactive) in [9]; 17.5 µM (inactive) in assay [10]; 10.5 µM (inactive) in assay [11]; 26.7 µM (inactive) in [12]. Further, the GI50 in [13] is 15.5 µM (inactive); in assay [14], 20.7 µM (inactive); in [15] it was 20.6 µM (inactive); in assay [16], 20.7 µM (inactive); in assay [17], 27.6 µM (inactive); in assay [18], 32 µM (inactive). Also, the values for the GI50 in assay [19] and in assay [20] were 18 µM (inactive) and 19.5 µM (inactive), respectively.
With `COc1cc2c(cc1OC)C(Cc1ccccc1CCCl)=NCC2`, the GI50 in assay [1] is > 100 µM (inactive); in [2], 84.1 µM (inactive); in assay [3] it was 55.3 µM (inactive); in [4] it was 6.85 µM (inactive); in assay [5] it was 22.5 µM (inactive); in assay [6], 58.7 µM (inactive). For the same molecule, the GI50 in assay [7] was 53.2 µM (inactive); in assay [8], 43.7 µM (inactive); in [9] it was > 100 µM (inactive); in [10], 30.3 µM (inactive); in assay [11], 15.9 µM (inactive); in assay [12], 38.1 µM (inactive). Moreover, the GI50 in assay [13] is 25.8 µM (inactive); in assay [14], 21.1 µM (inactive); in [15], 50.8 µM (inactive); in [16], 31.8 µM (inactive); in assay [17] it was 31.1 µM (inactive); in assay [18], 76.6 µM (inactive). The GI50 in assay [19] was > 100 µM (inactive); in assay [20] it was 31.3 µM (inactive).

What is called GI50 is the concentration giving 50% growth inhibition.
